Literature values in patent US6239177A, “Tranilast-containing preparation for external application and method of producing the same” (Lead Chemical Co., Ltd., priority 1996, dated 2001).
Where two headings read alike, the source gives them in different places.

How the values were obtained:
[1] = tested on: carrageenan-induced granulation tissue; details: for drug concentration in the skin tissue: one hour after final administration, 60 min
[2] = tested on: keloid and hypertrophic scar; details: Ichikawa 1992; Suzawa 1992

drug concentration in the skin tissue ([1]; oral 50 mg/kg for consecutive 14 days): 4.2 ± 0.4 µg/g
drug concentration in the skin tissue ([1]; oral 100 mg/kg for consecutive 14 days): 10.3 ± 0.9 µg/g
drug concentration in the skin tissue ([1]; oral 200 mg/kg for consecutive 14 days): 23.17 ± 1.7 µg/g
solubility in dimethyl formamide, pyridine, dioxane, and acetone (dimethyl formamide, pyridine, dioxane, acetone): soluble
solubility in a kind of fatty acid and its ester, animal and vegetable oils and fats, terpene compounds, and alcohols (fatty acids/esters, oils and fats, terpenes, alcohols): can be solved to some extent
solubility in methanol, ethanol, ethyl acetate (methanol, ethanol, ethyl acetate): hardly soluble
solubility in water: extremely sparingly soluble
solubility in water (listed as Tranilast): sparingly soluble
Compound: COc1ccc(C=CC(=O)Nc2ccccc2C(=O)O)cc1OC [tranilast, N-(3,4-dimethoxycinnamoyl)-anthranilic acid]
inhibitory effect (carrageenan-induced granulation tissue) ([1]; oral 50, 100, and 200 mg/kg for consecutive 14 days): dose-dependent inhibitory effect was observed
pharmaceutical effect on keloid and hypertrophic scar [2]: excellent pharmaceutical effect
